Reference: ChEMBL document CHEMBL4312044, “Pharmacokinetics-Driven Optimization of 7-Methylimidazo[1,5-a]pyrazin-8(7H)-one as Novel BRD4 Inhibitors” (ACS Med Chem Lett, 2019)
The source made the active and inactive calls. No cut-off for these calls is given here.

Legend:
[1] = biological target: T1, Bromodomain-containing protein 4 (Homo sapiens, UniProt O60885); assay: Inhibition of BRD4 bromodomain1 (unknown origin) using peptide H4 as substrate incubated for 15 mins followed by substrate addition and measured after 1 hr by alphascreen assay
[2] = Metabolic stability in human liver microsomes assessed as residue remaining at 10 uM incubated for 20 and 40 mins; assay type: ADME, Microsome; settings: read-out: Stability
BXPC-3 [3] = assay: Antiproliferative activity against human BxPC3 cells assessed as reduction in cell viability at 2 uM by MTT assay relative to control; assay type: functional; settings: for inhibition at 2 µM: Homo sapiens, BXPC-3
Raji = assay: Antiproliferative activity against human Raji cells assessed as reduction in cell viability at 2 uM by MTT assay relative to control; assay type: functional; settings: for inhibition at 2 µM: Homo sapiens, Raji
[4] = biological target: T1, Bromodomain-containing protein 4; assay: Inhibition of BRD4 bromodomain2 (unknown origin) using peptide H4 as substrate incubated for 15 mins followed by substrate addition and measured after 1 hr by alphascreen assay
[5] = Metabolic stability in rat liver microsomes assessed as residue remaining at 10 uM incubated for 20 and 40 mins; assay type: ADME, Microsome; settings: read-out: Stability
[6] = Metabolic stability in mouse liver microsomes assessed as residue remaining at 10 uM incubated for 20 and 40 mins; assay type: ADME, Microsome; settings: read-out: Stability
HL-60 = assay: Antiproliferative activity against human HL60 cells assessed as reduction in cell viability by MTT assay; assay type: functional, cell-based
BXPC-3 [7] = assay: Inhibition of colony formation in human BxPC3 cells at 2 uM relative to control; assay type: functional
Mus musculus [8] = assay: Upregulation of […] in BALB/c SCID mouse xenogrfted with human BxPC3 cells at 50 mg/kg, ip measured on day 14 by immunohistochemical analysis; assay type: functional, organism-based
Mus musculus [9] = assay: Down regulation of c-Myc in BALB/c SCID mouse xenogrfted with human BxPC3 cells at 50 mg/kg, ip measured on day 14 by immunohistochemical analysis; assay type: functional, organism-based
BXPC-3 [10] = assay: Antitumor activity against human BxPC3 cells xenografted in BALB/c SCID mouse assessed as reduction in tumor growth inhibition at 50 mg/kg, ip measured on day 14 relative to control; assay type: functional; settings: BXPC-3, ip, 336 h, read-out: TGI
[11] = Drug localization in nuclei of human BxPC3 cells at 2 uM incubated for 0.5 hrs by Hoechst 33342 staining based microscopic analysis; assay type: ADME, cell-based; settings: bxpc-3, 0.5 h
BXPC-3 [12] = assay: Antitumor activity against human BxPC3 cells xenografted in BALB/c SCID mouse assessed as reduction in tumor growth inhibition at 5 mg/kg, ip measured on day 14 relative to control; assay type: functional; settings: BXPC-3, ip, 336 h, read-out: TGI
BXPC-3 [13] = assay: Antitumor activity against human BxPC3 cells xenografted in BALB/c SCID mouse assessed as suppression of cell proliferation at 50 mg/kg, ip measured on day 14 by Ki-67 staining based assay; assay type: functional, organism-based
[14] = Toxicity in BALB/c SCID mouse assessed as reduction in body weight at 5 and 50 mg/kg, ip measured on day 14; assay type: organism-based; settings: in vivo
BXPC-3 [15] = assay: Antitumor activity against human BxPC3 cells xenografted in BALB/c SCID mouse assessed as reduction in tumor growth inhibition at 30 mg/kg, ip bid measured on day 14 relative to control; assay type: functional; settings: BXPC-3, ip, 336 h, read-out: TGI

Compound	IC50 [1]	remaining at 40 min, 10 µM [2]	inhibition at 2 µM (BXPC-3 [3])	inhibition at 2 µM (Raji)	IC50 [4]	remaining at 40 min, 10 µM [5]	remaining at 40 min, 10 µM [6]	IC50 (HL-60)	inhibition (INH) (BXPC-3 [3])	inhibition (INH) (Raji)	inhibition at 2 µM (BXPC-3 [7])	Activity (Mus musculus [8])	Activity (Mus musculus [9])	inhibition in vivo at 50 mg/kg (BXPC-3 [10])	Drug uptake [11]	inhibition in vivo at 5 mg/kg (BXPC-3 [12])	Activity (BXPC-3 [13])	Activity [14]	inhibition in vivo at 30 mg/kg (BXPC-3 [15])
Cn1cc(-c2cc(NS(C)(=O)=O)ccc2Oc2cccc(Br)c2)n2cncc2c1=O	57 nM	45.9%	36.1%	29.4%	61 nM	34.9%	67.2%	450 nM											
CCS(=O)(=O)Nc1ccc(Oc2ccc(F)cc2F)c(-c2cn(C)c(=O)c3[nH]ccc23)c1 [MIVEBRESIB]	39 nM	60.8%	42.7%	51.2%	47 nM	69%	60.9%	120 nM											
Cc1sc2c(c1C)C(c1ccc(Cl)cc1)=N[C@@H](CC(=O)OC(C)(C)C)c1nnc(C)n1-2								870 nM	31.1%	47.9%									
CCS(=O)(=O)Nc1ccc(Oc2ccc(C(C)C)cc2)c(-c2cn(C)c(=O)c3cncn23)c1	49 nM	13.1%	35.4%	50.4%	36 nM	3.9%	17.2%	110 nM											
CCS(=O)(=O)Nc1ccc(Oc2ccc(-c3c(C)noc3C)cc2)c(-c2cn(C)c(=O)c3cncn23)c1	64 nM	54.3%	23.2%	22.9%	50 nM	59.1%	48.2%	510 nM											
Cc1noc(C)c1-c1cccc(Oc2ccc(NS(C)(=O)=O)cc2-c2cn(C)c(=O)c3cncn23)c1	162 nM		31.7%	28.9%	179 nM			1230 nM											
Cn1cc(-c2cc(NS(C)(=O)=O)ccc2Oc2ccc(Br)cc2)n2cncc2c1=O	37 nM	66.7%	34.8%	33.1%	44 nM	54.2%	61.2%	230 nM											
CCS(=O)(=O)Nc1ccc(Oc2cc(F)ccc2C)c(-c2cn(C)c(=O)c3cncn23)c1	22 nM	13.2%	2.9%	33.8%	34 nM	7.6%	11.2%	440 nM											
Cn1cc(-c2cc(NS(C)(=O)=O)ccc2Oc2ccc(F)cc2)n2cncc2c1=O	44 nM	100%	25.3%	24.2%		78%	75.9%	370 nM											
CCS(=O)(=O)Nc1ccc(Oc2ccc(F)cc2)c(-c2cn(C)c(=O)c3cncn23)c1	30 nM	95.2%	38.4%	39.5%	29 nM	76.2%	65.6%	45 nM			> 50%	Active	Active	65%	Active	22%	Active	Non-Toxic	
CCS(=O)(=O)Nc1ccc(Oc2cc(C)ccc2F)c(-c2cn(C)c(=O)c3cncn23)c1	46 nM	14.1%	28.8%	49.9%	21 nM	5.7%	4.6%	270 nM											
CCS(=O)(=O)Nc1ccc(Oc2cccc(-c3c(C)noc3C)c2)c(-c2cn(C)c(=O)c3cncn23)c1	92 nM		25.1%	19.7%	81 nM			530 nM											
Cc1noc(C)c1-c1ccc(Oc2ccc(NS(C)(=O)=O)cc2-c2cn(C)c(=O)c3cncn23)cc1	141 nM		26.4%	23.7%	153 nM			1120 nM											
O=c1[nH]cc(F)c(=O)[nH]1 [FLUOROURACIL]																			67%
CCS(=O)(=O)Nc1ccc(Oc2cc(F)c(F)c(F)c2)c(-c2cn(C)c(=O)c3cncn23)c1	46 nM	55.8%	28.7%	46%	140 nM	54.3%	36%	590 nM											
CCS(=O)(=O)Nc1ccc(Oc2ccc(F)cc2F)c(-c2cn(C)c(=O)c3cncn23)c1	33 nM	21.2%	33.2%	46.2%	25 nM	17.6%	13.2%	110 nM											
